This experiment relates to Plasmodium falciparum. In words: Calibr Malaria Delayed Death Assay SOP. The following applies: for IC50: Plasmodium falciparum. Format: functional, organism-based.

The structures appear in SMILES notation. “And” between values parts separate entries of the source, which are not always exact repeats. Equal values may be shown once.

The term pIC50 denotes the IC50 on a negative log10 scale, so that one unit is a factor of ten. High values mean a small IC50, low ones a large IC50. In general, IC50 refers to the midpoint of a concentration-inhibition curve. Low readings indicate greater potency, high ones weaker potency. Take `CNc1cc(C)nc(NC2CCCN(C3Cc4ccccc4C3)C2)n1` (stereo not drawn): the pIC50 is recorded as 6.074 and the half-inhibitory concentration (IC50) is 775 nM.
In turn, `CCc1ccc(C2c3nc[nH]c3CCN2Cc2nccn2CC)nc1` (stereo not drawn) had a negative-log IC50 (pIC50) of 6.077 and an IC50 of 819 nM.
Taken in the same sequence, the figures for `Cc1ccc(CN(CCN(C)C)Cc2c(C)nc3sccn23)o1.O=C(O)CC(O)(CC(=O)O)C(=O)O` were 6.093 and 506 nM.
For `Cc1cccc(C2(NCCCS(C)(=O)=O)CCCC2)c1` the same measures were 6.254 and 659 nM.
Taken in the same sequence, the figures for `Cc1cccc(C)c1Nc1noc2c1CN(C(=O)c1ccnn1C)CC2` were 6.86 and 142 nM.
The compound `CC(C)[C@@H]1CN(C(=O)C2(c3ccccc3)CCN(C)CC2)C[C@H]1N(C)C` gave a pIC50 of 6.113 and a concentration for half-maximal inhibition (IC50) of 710 nM.
For `Cc1cnccc1CN1CC[C@@](C)(O)[C@H](Oc2cccc(F)c2)C1` the same measures were 5.517 and 2330 nM.
Taken in the same sequence, the figures for `Cc1ccc(CNC2CC3(CCN(CCO)CC3)c3ccccc32)s1.O=C(O)C(F)(F)F.O=C(O)C(F)(F)F` (stereo not drawn) were 6.464 and 322 nM.
For `O=C(NCCc1ccccc1)NCCN1CCC(c2cccs2)CC1` the same measures were 6.05 and 855 nM.
With `CCN(CC)C(CNC(=O)c1c(C)noc1C(C)C)c1ccsc1` (stereo not drawn), the pIC50 stood at 6.097 and the half-inhibitory concentration (IC50) is 1360 nM.
For `Cn1ccnc1CNC1CCCOc2c1ccc1ccccc21` (stereo not drawn) the same measures were 5.947 and 1200 nM.
Taken in the same sequence, the figures for `CN1CCCC(c2cccc(Cc3ccccc3Cl)n2)C1` (stereo not drawn) were 6.022 and 1020 nM.
For `CN(C)[C@@H]1CCN(c2ncccn2)[C@H]1Cc1ccccc1` the same measures were 6.116 and 554 nM.
`c1ccn2c(C3CCCN(c4ncnc5c4CCNC5)C3)nnc2c1` (stereo not drawn) gave a negative-log IC50 (pIC50) of 6.629 and an IC50 of 213 nM.
For `Cc1ccsc1CN(CCCN(C)C)Cc1ccccn1` the same measures were 6.353 and 409 nM.
Taken in the same sequence, the figures for `CC(NCCc1nccn1Cc1ccccc1)c1cccs1` (stereo not drawn) were 5.98 and 1290 nM.
For `CC(C)(C)n1cc(C2=CCN(CCc3ccccn3)CC2)cn1` the same measures were 6.143 and 1030 nM.
In the case of `CCc1cc(CNCc2ccccc2N(C)C2CCN(C)CC2)on1`, the pIC50 is 6.107 and inhibition was half-maximal at 828 nM (IC50).
Taken in the same sequence, the figures for `CO[C@@H]1CCN(Cc2ccoc2)C[C@@H]1Cc1ccccc1.O=C(O)C(F)(F)F` were 5.938 and 1080 nM.
Take `Fc1cccc(C(NCc2ncc[nH]2)c2ccccn2)c1` (stereo not drawn): the negative-log IC50 (pIC50) was determined as 6.434 and half-maximal inhibition (IC50) required 351 nM.
Taken in the same sequence, the figures for `Cl.OC1(c2ccc(F)cc2)CCN(Cc2ccccc2N2CCCC2)CC1` were 5.924 and 850 nM.
Consider `CN1CCC2(Cc3ccccc3CN(C(=O)Cc3cccc(Cl)c3)C2)C1` (stereo not drawn), for which the pIC50 was found to be 6.082 and the IC50 is 836 nM.
`CN(Cc1ncc(C(C)(C)C)o1)CC1CCCN1c1cccnn1` (stereo not drawn) had a negative logarithm of the IC50 (pIC50) of 5.852 and an IC50 of 1620 nM.
Taken in the same sequence, the figures for `COCCC1(CNC(=O)Nc2ccnc(C)c2)CCCC1` were 6.054 and 876 nM.
Taken in the same sequence, the figures for `O=C(CC1CCCC1)NCCNCc1cccc2c1OCCO2` were 6.128 and 938 nM.
Compound `CN1CCN(c2ccccc2NC(=O)NCCc2ccccc2)CC1` gave a pIC50 of 6.032 and a concentration for half-maximal inhibition (IC50) of 998 nM.
Taken in the same sequence, the figures for `CC(NCC1CCN(CCO)CC1)c1ccc(F)c(Cl)c1` (stereo not drawn) were 6.184 and 758 nM.
For `Cc1cc(F)ccc1CN1CCC(O)(CN2CCCCC2)C1` (stereo not drawn) the same measures were 6.047 and 1750 nM.
For `Cc1cccc(OC(C)C(=O)NCC2(N(C)C)CCCC2)c1` (stereo not drawn) the same measures were 6.11 and 760 nM.
For the compound `c1ccc(CCCN2CCN(c3ccc4nncn4n3)CC2)cc1`, the pIC50 was 5.983 and the 50% inhibitory concentration (IC50) was 1410 nM.
Consider `COc1ccc(C(=O)NCCCOC(C)c2ccccc2)c(OC)c1` (stereo not drawn), for which the negative-log IC50 (pIC50) came to 6.022 and the concentration for half-maximal inhibition (IC50) was 763 nM.
`CCn1ccnc1CN1CCCC(CO)(Cc2cccc(Cl)c2)C1` (stereo not drawn) gave a negative-log IC50 (pIC50) of 6.076 and an IC50 of 575 nM.
For `CC(O)c1cccc(Nc2nc(NCCO)c3ccccc3n2)c1` (stereo not drawn) the same measures were 6.601 and 220 nM.
Taken in the same sequence, the figures for `CCC(C)(C)n1nnnc1C(c1cccs1)N1CCc2ccccc2C1` (stereo not drawn) were 6.38 and 550 nM.
For `CCOc1ccc(Cl)cc1C1CCCCN1.Cl` (stereo not drawn) the same measures were 6.229 and 612 nM.
Take `Cc1ccc(CN2CCC3(CC2)CCN(Cc2ccco2)CC3)cc1.O=C(O)C(F)(F)F.O=C(O)C(F)(F)F`: the pIC50 is given as 6.236 and 555 nM corresponded to half-maximal inhibition (IC50).
Regarding `COc1cc(CNCC(O)c2ccc(F)cc2F)cc2c1OCO2` (stereo not drawn), the pIC50 is 6.074 and the half-maximal inhibitory concentration (IC50) is 972 nM.
For `NC1(C(=O)NCC2CCCN(Cc3ccccc3F)C2)CCCC1` (stereo not drawn) the same measures were 6.224 and 470 nM.
Taken in the same sequence, the figures for `Br.CCOc1ccc(Br)cc1C1CCCN1` (stereo not drawn) were 6.082 and 534 nM.
Turning to `Cc1cccc2[nH]c(-c3cn(C4CCNCC4)nn3)nc12`, the pIC50 stood at 6.226 and the IC50 is 597 nM.
In the case of `CSc1ccc(-c2nc(CN3CCC(CN)C3)c(C)o2)cc1` (stereo not drawn), the negative-log IC50 (pIC50) is 5.962 and 5.805 and 6.058; the half-inhibitory concentration (IC50) is 1020 nM.
`CCN(CC)CCN(C)c1nc(-c2ccc(Cl)cc2)nc2c1CNC2`: the negative-log IC50 (pIC50) amounted to 6.071 and the IC50 is 1020 nM.
Taken in the same sequence, the figures for `CC(O)CN1CCC(CNCc2cccc(Cl)c2)CC1` (stereo not drawn) were 6.249 and 599 nM.
`COc1ccc(Cn2nnnc2SCC2CCCN(C)C2)cc1` (stereo not drawn) showed a negative logarithm of the IC50 (pIC50) of 5.834 and an IC50 of 1090 nM.
Taken in the same sequence, the figures for `Cc1cc(C)c(CNCC(O)c2ccc(F)c(F)c2)c(C)c1.Cl` (stereo not drawn) were 6.932 and 125 nM.
Taken in the same sequence, the figures for `COCCCN1CCCN(C(C)C(=O)Nc2cccc(I)c2)CC1` (stereo not drawn) were 6.54 and 483 nM.
Taken in the same sequence, the figures for `CC1(C)CN(C(CNC2=NCCN2)c2ccc(Cl)cc2)CCO1.I` (stereo not drawn) were 6.344 and 478 nM.
`O=C(C(CNCc1ccsc1)c1ccccc1)N1CCOCC1` (stereo not drawn) had a pIC50 of 6.002 and an IC50 of 1450 nM.
For `COc1ccc(CCC(=O)NCCN2CCC(c3cccs3)CC2)cc1` the same measures were 6.185 and 781 nM.
Taken in the same sequence, the figures for `Cc1nc(-c2ccc(F)c(F)c2)cc(C2CCNCC2)n1.Cl` were 6.123 and 797 nM.
`CC(NCCN1CCC(N(C)C)CC1)c1ccc(Cl)s1` (stereo not drawn) showed a pIC50 of 6.149 and a half-inhibitory concentration (IC50) of 996 nM.
Taken in the same sequence, the figures for `CC(C)n1ncc2c1NC(=O)CC21C(=O)Nc2c(Cl)ccc(Cl)c21` (stereo not drawn) were 5.929 and 1080 nM.
`Cc1cccc(C)c1Nc1noc2c1CN(C(=O)c1cn(C)cn1)CC2`: the pIC50 was 6.709 and the half-maximal inhibitory concentration (IC50) was 190 nM.
Compound `Br.Cc1cc(C)c(N(CC(O)CNCc2ccccc2)S(C)(=O)=O)c(C)c1` (stereo not drawn) had a negative logarithm of the IC50 (pIC50) of 6.525 and an IC50 of 355 nM.
For `CCC(CNC(=O)CNC(C)=O)Oc1cccc(F)c1` (stereo not drawn) the same measures were 5.937 and 1020 nM.
Compound `COc1ccc(N2CCCC3(C2)CN(c2nncs2)CCO3)cc1` (stereo not drawn) had a pIC50 of 6.845 and an IC50 of 173 nM.
Taken in the same sequence, the figures for `Oc1ccc(Cl)cc1CNCc1ccccc1Cl` were 6.1 and 616 nM.
For `CNc1nc(C)cc(NC2CCCN(C3Cc4ccccc4C3)C2)n1` (stereo not drawn) the same measures were 6.114 and 968 nM.
Regarding `Cc1ccc(C)c(OCCNC(=O)[C@@H]2CCCCN2)c1`, the pIC50 is reported as 6.461 and inhibition was half-maximal at 362 nM (IC50).
For `Cc1cccc(C)c1Nc1noc2c1CN(C(=O)c1c[nH]nc1C)CC2` the same measures were 6.277 and 691 nM.
For `Cc1cc(F)ccc1N1CCC(N2C[C@@H](CN(C)C)[C@@H](CO)C2)CC1` the same measures were 6.511 and 314 nM.
For `CCN(CC1CN(Cc2nc(C3CC3)no2)CCO1)c1cccnn1` (stereo not drawn) the same measures were 5.75 and 1860 nM.
The compound `COc1cccc(CN(C)Cc2[nH]c3ccccc3c2C)c1O` had a negative logarithm of the IC50 (pIC50) of 6.46 and an IC50 of 310 nM.
Regarding `Cc1ccc2c(c1)CN(C(=O)C1CCCCC1)C(CN(C)C)CO2.Cl` (stereo not drawn), the negative-log IC50 (pIC50) is 6.082 and the midpoint of inhibition, the IC50, lay at 880 nM.
For `CCN1CCC(CNCc2cc(C)ccc2OC)C1` (stereo not drawn) the same measures were 6.037 and 1150 nM.
Compound `Cc1cccnc1CC(C)NC1Cc2ccccc2C1` (stereo not drawn) showed a pIC50 of 5.954 and an IC50 of 1290 nM.
Taken in the same sequence, the figures for `Clc1ccc(C2(CNC3=NCCN3)CC2)cc1.I` were 6.323 and 505 nM.
For the compound `CCN1CCN(c2ccc(F)cc2C(C)NCc2cscn2)CC1` (stereo not drawn), the negative-log IC50 (pIC50) is on record as 5.999 and it took 907 nM to reach half-maximal inhibition (IC50).
Taken in the same sequence, the figures for `Cc1ccc(S(=O)(=O)N2CCC(N3CCCCC3)CC2)cc1C` were 5.751 and 2130 nM.
For `O[C@H]1[C@H](n2cc(CN3CCCC3)nn2)c2ccccc2C12CCNCC2` the same measures were 7.12 and 64.7 nM.
Taken in the same sequence, the figures for `Cc1cnccc1CN1CC[C@H](Oc2cccc(F)c2)[C@@](C)(O)C1` were 5.772 and 1420 nM.
`Cc1nccn1CCCN1CCCC(c2ccccc2)C1` (stereo not drawn): the pIC50 is listed as 6.639 and half-maximal inhibition (IC50) required 234 nM.
Taken in the same sequence, the figures for `COCCN1CCC2(CC1)CC(NCc1ccc(C)s1)c1ccccc12.O=C(O)C(F)(F)F.O=C(O)C(F)(F)F` (stereo not drawn) were 6.267 and 561 nM.
Consider `COc1ccc2[nH]c(C[C@@H]3C[C@@H](C(C)C)[C@H](CN(C)C)C=C3C)nc2c1`, for which the pIC50 is recorded as 6.245 and it took 615 nM to reach half-maximal inhibition (IC50).

These data come from ChEMBL document CHEMBL3988442, “University of Dundee, Small-Polar-MMV Screening Library” (2021).
